Patent publication US20100105655A1, “NOVEL COMPOUNDS 515” (ASTRAZENECA AB, priority 2008, published 2010)

Each compound was assayed against T1, IGFR kinase (Homo sapiens, UniProt P08069) (assay: Enzyme assay (c), IGFR kinase, Caliper LabChip). Details: 30 nM IGFR kinase, 6 uM ATP, 3 uM peptide mix; read-out: IGFR IC50.
T1 construct: purchased Millipore
T1 sequence (P08069 31-1367): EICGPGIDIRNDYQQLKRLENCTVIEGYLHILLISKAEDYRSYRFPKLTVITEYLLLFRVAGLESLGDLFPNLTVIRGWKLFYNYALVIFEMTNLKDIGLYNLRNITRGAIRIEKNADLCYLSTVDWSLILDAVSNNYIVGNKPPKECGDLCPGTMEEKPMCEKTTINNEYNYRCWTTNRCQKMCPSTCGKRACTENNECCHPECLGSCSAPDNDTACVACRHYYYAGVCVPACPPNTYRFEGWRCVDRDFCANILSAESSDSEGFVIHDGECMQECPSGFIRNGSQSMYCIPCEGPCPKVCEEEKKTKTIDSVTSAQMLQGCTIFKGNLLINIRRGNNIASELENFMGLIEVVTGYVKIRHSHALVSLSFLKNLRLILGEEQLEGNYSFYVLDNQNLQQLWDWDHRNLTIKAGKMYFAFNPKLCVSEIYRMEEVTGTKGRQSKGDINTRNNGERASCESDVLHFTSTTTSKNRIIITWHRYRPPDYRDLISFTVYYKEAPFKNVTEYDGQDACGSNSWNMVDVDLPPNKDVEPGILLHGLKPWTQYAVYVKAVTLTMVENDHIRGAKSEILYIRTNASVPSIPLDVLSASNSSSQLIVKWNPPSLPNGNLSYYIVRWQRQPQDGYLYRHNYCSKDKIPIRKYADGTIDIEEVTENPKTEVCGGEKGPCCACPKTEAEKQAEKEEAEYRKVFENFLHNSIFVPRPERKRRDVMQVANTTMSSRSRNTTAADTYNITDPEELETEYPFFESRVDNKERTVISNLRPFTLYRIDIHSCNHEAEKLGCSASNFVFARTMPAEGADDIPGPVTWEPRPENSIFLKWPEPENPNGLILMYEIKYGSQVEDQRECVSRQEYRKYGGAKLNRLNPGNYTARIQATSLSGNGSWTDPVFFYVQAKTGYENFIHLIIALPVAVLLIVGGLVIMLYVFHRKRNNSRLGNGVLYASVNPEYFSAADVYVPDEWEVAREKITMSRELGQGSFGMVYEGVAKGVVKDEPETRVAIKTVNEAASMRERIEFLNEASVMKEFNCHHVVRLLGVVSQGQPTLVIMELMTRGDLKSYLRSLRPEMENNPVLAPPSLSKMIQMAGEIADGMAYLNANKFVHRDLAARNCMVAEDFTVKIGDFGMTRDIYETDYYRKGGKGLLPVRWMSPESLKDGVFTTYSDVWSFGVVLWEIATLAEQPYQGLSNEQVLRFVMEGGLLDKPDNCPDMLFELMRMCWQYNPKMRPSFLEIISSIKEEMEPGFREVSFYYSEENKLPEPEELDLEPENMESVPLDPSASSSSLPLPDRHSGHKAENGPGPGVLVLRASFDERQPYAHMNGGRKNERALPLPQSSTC
Format: biochemical
Description: For Echo dosing the solvent was 100% DMSO. A master plate was prepared with 40 ul of 10 mM stock solution of the test compound in DMSO in quadrant 1 of a Labcyte 384 well plate. A 1 in 100 dilution was made from quadrant 1 into quadrant 2 by removing 0.4 ul and adding it to 39.6 ul of DMSO. Subsequent 1 in 100 dilutions were made into quadrant 3 from quadrant 2 and quadrant 4 from quadrant 3.
Multiple 2.5 nl droplets were dispensed from each quadrant of the master plate to generate the dose range that was required in the test. The dose range most commonly used was as follows: 100 uM, 30 uM, 10 uM, 3 uM, 1 uM, 0.3 uM, 0.1 uM, 0.03 uM, 0.01 uM, 0.003 uM, 0.001 uM, 0.0001 uM. Each well was backfilled with dimethyl sulfoxide (DMSO) to a total volume of 120 nl, such that when the enzyme and substrate mix was added the final DMSO concentration was 1%.
DMSO was added to max control wells as 120 nl, minimum control wells were treated with 120 nl of compound at a concentration that inhibited the enzyme activity 100%.
Integration of the substrate and product peaks was carried out using Caliper LabChip software and IC50 curves were calculated using Origin™ software.
For `COc1cc(O[C@@H]2CCN(C(=O)C(C)O)C2)ccc1Nc1ncc(Cl)c(-c2cnc3ccccn23)n1` (mixture of isomers) [Example 12, 1-[(3R)-3-[4-[(5-chloro-4-imidazo[1,2-a]pyridin-3-yl-pyrimidin-2-yl)amino]-3-methoxy-phenoxy]pyrrolidin-1-yl]-2-hydroxy-propan-1-one], the IC50 was 22 nM.
`COc1cc(O[C@H]2CCN(C(=O)C(C)O)C2)ccc1Nc1ncc(Cl)c(-c2cnc3ccccn23)n1` (mixture of isomers) [Example 15, 1-[(3S)-3-[4-[(5-chloro-4-imidazo[1,2-a]pyridin-3-yl-pyrimidin-2-yl)amino]-3-methoxy-phenoxy]pyrrolidin-1-yl]-2-hydroxy-propan-1-one] gave an IC50 of 12 nM.
Work on `COc1cc(N2CCCC2C(=O)N2CCOCC2)ccc1Nc1ncc(Cl)c(-c2cnc3ccccn23)n1` (stereo not drawn) [Example 3.2, [1-[4-[(5-chloro-4-imidazo[1,2-a]pyridin-3-yl-pyrimidin-2-yl)amino]-3-methoxy-phenyl]pyrrolidin-2-yl]-morpholino-methanone] yielded an IC50 of 54 nM.
`COc1cc(N2CCN(CC(=O)N3CCOCC3)CC2)ccc1Nc1ncc(Cl)c(-c2cnc3ccccn23)n1` [Example 3.3, 2-[4-[4-[(5-chloro-4-imidazo[1,2-a]pyridin-3-yl-pyrimidin-2-yl)amino]-3-methoxy-phenyl]piperazin-1-yl]-1-morpholino-ethanone] was tested, and the IC50 was 11 nM.
For `COc1ccc(N2CC[C@H](O)C2)cc1Nc1ncc(Cl)c(-c2cnc3ccccn23)n1` [Example 3.5, (3S)-1-[3-[(5-chloro-4-imidazo[1,2-a]pyridin-3-yl-pyrimidin-2-yl)amino]-4-methoxy-phenyl]pyrrolidin-3-ol], the IC50 was 41 nM.
Compound `COc1cc(N2CC(C)NC(C)C2)ccc1Nc1ncc(Cl)c(-c2cnc3ccccn23)n1` (stereo not drawn) [Example 3.6, 5-chloro-N-[4-(3,5-dimethylpiperazin-1-yl)-2-methoxy-phenyl]-4-imidazo[1,2-a]pyridin-3-yl-pyrimidin-2-amine] has an IC50 of 20 nM.
`COc1cc(N2CCN(S(=O)(=O)N(C)C)CC2)ccc1Nc1ncc(Cl)c(-c2cnc3ccccn23)n1` [Example 3.7, 4-[4-[(5-chloro-4-imidazo[1,2-a]pyridin-3-yl-pyrimidin-2-yl)amino]-3-methoxy-phenyl]-N,N-dimethyl-piperazine-1-sulfonamide] showed an IC50 of 11 nM.
For `COc1ccc(N2CCCC2)cc1Nc1ncc(Cl)c(-c2cnc3ccccn23)n1` [Example 3.8, 5-chloro-4-imidazo[1,2-a]pyridin-3-yl-N-(2-methoxy-5-pyrrolidin-1-yl-phenyl)pyrimidin-2-amine], the IC50 was 309 nM.
With `COc1cc(N2CC[C@@H](N(C)C)C2)ccc1Nc1ncc(Cl)c(-c2cnc3ccccn23)n1` [Example 3.11, 5-chloro-N-[4-[(3R)-3-dimethylaminopyrrolidin-1-yl]-2-methoxy-phenyl]-4-imidazo[1,2-a]pyridin-3-yl-pyrimidin-2-amine] the IC50 was 69 nM.
`COCCN1CCN(CCOc2ccc(Nc3ncc(Cl)c(-c4cnc5ccccn45)n3)c(OC)c2)CC1` [Example 3.12, 5-chloro-4-imidazo[1,2-a]pyridin-3-yl-N-[2-methoxy-4-[2-[4-(2-methoxyethyl)piperazin-1-yl]ethoxy]phenyl]pyrimidin-2-amine] gave an IC50 of 44 nM.
`COc1ccc(N2CC[C@@H](N(C)C)C2)cc1Nc1ncc(Cl)c(-c2cnc3ccccn23)n1` [Example 3.13, 5-chloro-N-[5-[(3R)-3-dimethylaminopyrrolidin-1-yl]-2-methoxy-phenyl]-4-imidazo[1,2-a]pyridin-3-yl-pyrimidin-2-amine] gave an IC50 of 60 nM.
`Cc1ccc(N2CC[C@H](N(C)C)C2)cc1Nc1ncc(Cl)c(-c2cnc3ccccn23)n1` [Example 3.14, 5-chloro-N-[5-[(3S)-3-dimethylaminopyrrolidin-1-yl]-2-methyl-phenyl]-4-imidazo[1,2-a]pyridin-3-yl-pyrimidin-2-amine] gave an IC50 of 30 nM.
`COc1cc(N2CCS(=O)(=O)CC2)ccc1Nc1ncc(Cl)c(-c2cnc3ccccn23)n1` [Example 3.15, 5-chloro-N-[4-(1,1-dioxo-1,4-thiazinan-4-yl)-2-methoxy-phenyl]-4-imidazo[1,2-a]pyridin-3-yl-pyrimidin-2-amine] showed an IC50 of 60 nM.
Compound `COc1cc(N2CC[C@H](N(C)C)C2)ccc1Nc1ncc(Cl)c(-c2cnc3ccccn23)n1` [Example 3.16, 5-chloro-N-[4-[(3S)-3-dimethylaminopyrrolidin-1-yl]-2-methoxy-phenyl]-4-imidazo[1,2-a]pyridin-3-yl-pyrimidin-2-amine] has an IC50 of 43 nM.
`COc1ccc(N2CC[C@H](N(C)C)C2)cc1Nc1ncc(Cl)c(-c2cnc3ccccn23)n1` [Example 3.17, 5-chloro-N-[5-[(3S)-3-dimethylaminopyrrolidin-1-yl]-2-methoxy-phenyl]-4-imidazo[1,2-a]pyridin-3-yl-pyrimidin-2-amine] was tested, and the IC50 was 125 nM.
For `COc1ccc(N2CC[C@@H](O)C2)cc1Nc1ncc(Cl)c(-c2cnc3ccccn23)n1` [Example 3.18, (3R)-1-[3-[(5-chloro-4-imidazo[1,2-a]pyridin-3-yl-pyrimidin-2-yl)amino]-4-methoxy-phenyl]pyrrolidin-3-ol], the IC50 was 41 nM.
`COc1ccc(N2CCC(OC)CC2)cc1Nc1ncc(Cl)c(-c2cnc3ccccn23)n1` [Example 3.20, 5-chloro-4-imidazo[1,2-a]pyridin-3-yl-N-[2-methoxy-5-(4-methoxy-1-piperidyl)phenyl]pyrimidin-2-amine] gave an IC50 of 43 nM.
For `COc1cc(N2CC[C@@H](NC(C)=O)C2)ccc1Nc1ncc(Cl)c(-c2cnc3ccccn23)n1` [Example 3.23, N-((3R)-1-(4-(5-chloro-4-(imidazo[1,2-a]pyridin-3-yl)pyrimidin-2-ylamino)-3-methoxyphenyl)pyrrolidin-3-yl)acetamide], the IC50 was 18 nM.
`COc1cc(C2CNC(=O)C2)ccc1Nc1ncc(Cl)c(-c2cnc3ccccn23)n1` (stereo not drawn) [Example 3.24, 4-[4-[(5-chloro-4-imidazo[1,2-a]pyridin-3-yl-pyrimidin-2-yl)amino]-3-methoxy-phenyl]pyrrolidin-2-one] was tested, and the IC50 was 8 nM.
`COc1cc(C2CCCCN2C(C)=O)ccc1Nc1ncc(Cl)c(-c2cnc3ccccn23)n1` (stereo not drawn) [Example 3.25, 1-[2-[4-[(5-chloro-4-imidazo[1,2-a]pyridin-3-yl-pyrimidin-2-yl)amino]-3-methoxy-phenyl]-1-piperidyl]ethanone] showed an IC50 of 10 nM.
Compound `COc1cc(N2CCN(C(C)=O)CC2)cc(F)c1Nc1ncc(Cl)c(-c2cnc3ccccn23)n1` [Example 3.26, 1-[4-[4-[(5-chloro-4-imidazo[1,2-a]pyridin-3-yl-pyrimidin-2-yl)amino]-3-fluoro-5-methoxy-phenyl]piperazin-1-yl]ethanone] has an IC50 of 19 nM.
`CNC(=O)C1CC(c2ccc(Nc3ncc(Cl)c(-c4cnc5ccccn45)n3)c(OC)c2)CN1` (stereo not drawn) [Example 3.27, 4-[4-[(5-chloro-4-imidazo[1,2-a]pyridin-3-yl-pyrimidin-2-yl)amino]-3-methoxy-phenyl]-N-methyl-pyrrolidine-2-carboxamide] was tested, and the IC50 was 6 nM.
`COc1cc(C2CCCN(C(C)=O)C2)ccc1Nc1ncc(Cl)c(-c2cnc3ccccn23)n1` (stereo not drawn) [Example 3.29, 1-[3-[4-[(5-chloro-4-imidazo[1,2-a]pyridin-3-yl-pyrimidin-2-yl)amino]-3-methoxy-phenyl]-1-piperidyl]ethanone] was tested, and the IC50 was 6 nM.
For `CC(=O)N1CCN(c2ccc(Nc3ncc(Cl)c(-c4cnc5ccccn45)n3)c(C)c2)CC1` [Example 3.30, 1-[4-[4-[(5-chloro-4-imidazo[1,2-a]pyridin-3-yl-pyrimidin-2-yl)amino]-3-methyl-phenyl]piperazin-1-yl]ethanone], the IC50 was 12 nM.
`COc1cc(N2CC(C)N(C(C)=O)C(C)C2)ccc1Nc1ncc(Cl)c(-c2cnc3ccccn23)n1` (stereo not drawn) [Example 3.31, 1-[4-[4-[(5-chloro-4-imidazo[1,2-a]pyridin-3-yl-pyrimidin-2-yl)amino]-3-methoxy-phenyl]-2,6-dimethyl-piperazin-1-yl]ethanone] gave an IC50 of 11 nM.
In the case of `CC(=O)N1CCN(c2ccc(Nc3ncc(Cl)c(-c4cnc5ccccn45)n3)c(C)c2C)CC1` [Example 3.32, 1-[4-[4-[(5-chloro-4-imidazo[1,2-a]pyridin-3-yl-pyrimidin-2-yl)amino]-2,3-dimethyl-phenyl]piperazin-1-yl]ethanone], the IC50 is reported as 12 nM.
Compound `CC(=O)N1CCN(c2cc(C)c(Nc3ncc(Cl)c(-c4cnc5ccccn45)n3)cc2F)CC1` [Example 3.33, 1-[4-[4-[(5-chloro-4-imidazo[1,2-a]pyridin-3-yl-pyrimidin-2-yl)amino]-2-fluoro-5-methyl-phenyl]piperazin-1-yl]ethanone] has an IC50 of 16 nM.
`CC(=O)N1CCN(c2ccc(Nc3ncc(Cl)c(-c4cnc5ccccn45)n3)c(OC(C)C)c2)CC1` [Example 3.34, 1-[4-[4-[(5-chloro-4-imidazo[1,2-a]pyridin-3-yl-pyrimidin-2-yl)amino]-3-isopropoxy-phenyl]piperazin-1-yl]ethanone] showed an IC50 of 22 nM.
`COc1cc(N2C[C@@H](C)N(C(C)=O)C[C@@H]2C)ccc1Nc1ncc(Cl)c(-c2cnc3ccccn23)n1` [Example 3.35, 1-[(2R,5S)-4-[4-[(5-chloro-4-imidazo[1,2-a]pyridin-3-yl-pyrimidin-2-yl)amino]-3-methoxy-phenyl]-2,5-dimethyl-piperazin-1-yl]ethanone] was tested, and the IC50 was 10 nM.
Compound `COc1cc(N2CCN(C(C)=O)C(C)C2)ccc1Nc1ncc(Cl)c(-c2cnc3ccccn23)n1` (stereo not drawn) [Example 3.36, 1-[4-[4-[(5-chloro-4-imidazo[1,2-a]pyridin-3-yl-pyrimidin-2-yl)amino]-3-methoxy-phenyl]-2-methyl-piperazin-1-yl]ethanone] has an IC50 of 8 nM.
